Reference: PMC4235344, “A single-component multidrug transporter of the major facilitator superfamily is part of a network that protects E scherichia coli from bile salt stress” (Molecular Microbiology, 2014)

Target: T1, MdtM (Escherichia coli, UniProt P39386)
T1 construct: full-length wild-type, pBAD/Myc-His A vector (pMdtM), homologously overexpressed in E. coli LMG194, purified in DDM
Experiment: intrinsic Trp fluorescence quenching
Format: binding

T1 sequence (P39386 whole entry): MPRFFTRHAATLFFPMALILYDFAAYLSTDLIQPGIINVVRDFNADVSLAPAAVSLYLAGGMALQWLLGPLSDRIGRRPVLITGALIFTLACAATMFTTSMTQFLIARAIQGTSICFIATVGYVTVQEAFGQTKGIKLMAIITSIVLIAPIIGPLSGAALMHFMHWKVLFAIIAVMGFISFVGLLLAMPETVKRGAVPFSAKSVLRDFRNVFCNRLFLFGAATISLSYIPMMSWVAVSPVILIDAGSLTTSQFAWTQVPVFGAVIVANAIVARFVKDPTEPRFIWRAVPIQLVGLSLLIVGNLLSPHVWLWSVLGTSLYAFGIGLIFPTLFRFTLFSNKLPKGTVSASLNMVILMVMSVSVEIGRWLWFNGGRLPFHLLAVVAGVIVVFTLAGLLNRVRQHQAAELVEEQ

| Compound | Kd |
| --- | --- |
| C[C@H](CCC(=O)O)[C@H]1CC[C@H]2[C@@H]3[C@H](O)C[C@@H]4C[C@H](O)CC[C@]4(C)[C@H]3C[C@H](O)[C@]12C [cholate] | 24 ± 6 µM |
| C[C@H](CCC(=O)O)[C@H]1CC[C@H]2[C@@H]3CC[C@@H]4C[C@H](O)CC[C@]4(C)[C@H]3C[C@H](O)[C@]12C [deoxycholate] | 176 ± 20 µM |
